Test results published in patent US20250136619A1, “HETEROBIFUNCTIONAL COMPOUNDS AND THEIR USE IN TREATING DISEASE” (HALDA THERAPEUTICS OPCO, INC., priority 2021, published 2025).
pKd: −log10 of the molar value.

Columns and labels:
PLK1 = PLK1 (Homo sapiens (Human), UniProt P53350); assay: KdELECT assay for binding affinity to PLK1
Method: Compounds were tested using a KdELECT assay. Kinase-tagged T7 phage strains were prepared in an E. coli host derived from the BL21 strain. E. coli were grown to log-phase and infected with T7 phage and incubated with shaking at 32° C. until lysis. The lysates were centrifuged and filtered to remove cell debris. The remaining kinases were produced in HEK-293 cells and subsequently tagged with DNA for qPCR detection. Streptavidin-coated magnetic beads were treated with biotinylated small molecule ligands for 30 minutes at room temperature to generate affinity resins for kinase assays. The liganded beads were blocked with excess biotin and washed with blocking buffer (SeaBlock (Pierce), 1% BSA, 0.05% Tween 20, 1 mM DTT) to remove unbound ligand and to reduce non-specific binding. Binding reactions were assembled by combining kinases, liganded affinity beads, and test compounds in 1×binding buffer (20% SeaBlock, 0.17×PBS, 0.05% Tween 20, 6 mM DTT). Test compounds were prepared as 111X stocks in 100% DMSO. Kd values were determined using an 11-point 3-fold compound dilution series with three DMSO control points. All compounds for Kd measurements are distributed by acoustic transfer (non-contact dispensing) in 100% DMSO.
The compounds were then diluted directly into the assays such that the final concentration of DMSO was 0.9%. […] The kinase concentration in the eluates was measured by qPCR.

androgen receptor = androgen receptor (Homo sapiens, UniProt P10275); assay: Radioligand ([3H]methyltrienolone) assay for binding affinity to androgen receptor; details: cell cytosol, 1 nM [3H]methyltrienolone
Method: Fractions of cell cytosol ([…]) were incubated for 24 hr at 4° C. with 1 nM [^3H]methyltrienolone in the absence or presence of the test compound in a buffer containing 25 mM Hepes-Tris (pH 7.4), 1 mM EDTA, 10 mM Na2MoO4, 2 mM DTT, 5 μM triamcinolone acetonide, and 10% glycerol. Nonspecific binding was determined in the presence of 1 μM testosterone. Following incubation, the samples were filtered rapidly under vacuum through glass fiber filters (GF/B, Packard) presoaked with 0.3% PEI and rinsed several times with ice-cold 50 mM Tris —HCl using a 96-sample cell harvester (Unifilter, Packard). The filters were dried then counted for radioactivity in a scintillation counter (Topcount, Packard) using a scintillation cocktail (Microscint 0, Packard). The results are expressed as a percent inhibition of the control radioligand specific binding. The standard reference compound is testosterone, which is tested in each experiment at several concentrations to obtain a competition curve from which its IC50 is calculated.

BRD4-BD2 = BRD4-BD2 (Homo sapiens (Human), UniProt O60885); assay: bromoKdELECT assay for binding affinity to BRD4-BD2
Method: (§1) Compounds were tested using a bromoKdELECT assay. T7 phage strains displaying bromodomains were grown in parallel in 24-well blocks in an E. coli host derived from the BL21 strain. E. coli were grown to log-phase and infected with T7 phage from a frozen stock (multiplicity of infection=0.4) and incubated with shaking at 32° C. until lysis (90-150 minutes). The lysates were centrifuged (5,000×g) and filtered (0.2 μm) to remove cell debris. Streptavidin-coated magnetic beads were treated with biotinylated small molecule or acetylated peptide ligands for 30 minutes at room temperature to generate affinity resins for bromodomain assays. The liganded beads were blocked with excess biotin and washed with blocking buffer (SeaBlock (Pierce), 1% BSA, 0.05% Tween 20, 1 mM DTT) to remove unbound ligand and to reduce nonspecific phage binding. Binding reactions were assembled by combining bromodomains, liganded affinity beads, and test compounds in 1×binding buffer (17% SeaBlock, 0.33×PBS, 0.04% Tween 20, 0.02% BSA, 0.004% Sodium azide, 7.4 mM DTT). Test compounds were prepared as 1000X stocks in 100% DMSO. Kds were determined using an 11-point 3-fold compound dilution series with one DMSO control point. All compounds for Kd measurements are distributed by acoustic transfer (non-contact dispensing) in 100% DMSO. The compounds were then diluted directly into the assays such that the final concentration of DMSO was 0.09%. All reactions performed in polypropylene 384-well plates. Each was a final volume of 0.02 ml. The assay plates were incubated at room temperature with shaking for 1 hour and the affinity beads were washed with wash buffer (1×PBS, 0.05% Tween 20). The beads were then resuspended in elution buffer (1×PBS, 0.05% Tween 20, 2 μM non-biotinylated affinity ligand) and incubated at room temperature with shaking for 30 minutes. The bromodomain concentration in the eluates was measured by qPCR.

BRD4-BD1 = BRD4-BD1 (Homo sapiens (Human), UniProt O60885); assay: bromoKdELECT assay for binding affinity to BRD4-BD1
Method: as §1

Chain of androgen receptor (P10275 whole entry, looked up): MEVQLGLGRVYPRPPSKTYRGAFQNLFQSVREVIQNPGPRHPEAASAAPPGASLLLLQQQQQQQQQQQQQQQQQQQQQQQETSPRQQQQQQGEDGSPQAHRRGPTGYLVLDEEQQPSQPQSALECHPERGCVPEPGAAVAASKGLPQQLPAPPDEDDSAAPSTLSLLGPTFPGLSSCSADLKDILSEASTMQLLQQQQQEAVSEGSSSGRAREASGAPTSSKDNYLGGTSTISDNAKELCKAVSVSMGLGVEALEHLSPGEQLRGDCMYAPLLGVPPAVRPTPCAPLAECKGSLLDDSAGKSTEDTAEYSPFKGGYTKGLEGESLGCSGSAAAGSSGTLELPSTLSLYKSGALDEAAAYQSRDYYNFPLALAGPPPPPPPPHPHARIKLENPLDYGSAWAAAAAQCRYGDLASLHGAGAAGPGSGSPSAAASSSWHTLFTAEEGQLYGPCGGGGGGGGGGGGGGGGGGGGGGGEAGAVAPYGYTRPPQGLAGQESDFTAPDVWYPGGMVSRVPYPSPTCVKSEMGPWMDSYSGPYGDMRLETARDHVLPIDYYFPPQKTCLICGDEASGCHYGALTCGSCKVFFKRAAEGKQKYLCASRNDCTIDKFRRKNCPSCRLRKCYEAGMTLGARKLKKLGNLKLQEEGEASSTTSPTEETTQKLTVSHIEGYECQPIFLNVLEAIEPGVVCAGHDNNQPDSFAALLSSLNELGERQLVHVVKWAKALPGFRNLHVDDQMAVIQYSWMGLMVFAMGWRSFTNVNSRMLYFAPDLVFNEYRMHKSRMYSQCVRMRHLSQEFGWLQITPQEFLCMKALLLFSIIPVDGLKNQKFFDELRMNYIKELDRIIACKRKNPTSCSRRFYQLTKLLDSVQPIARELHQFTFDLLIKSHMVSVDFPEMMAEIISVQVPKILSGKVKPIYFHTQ
Chain of PLK1 (P53350 whole entry): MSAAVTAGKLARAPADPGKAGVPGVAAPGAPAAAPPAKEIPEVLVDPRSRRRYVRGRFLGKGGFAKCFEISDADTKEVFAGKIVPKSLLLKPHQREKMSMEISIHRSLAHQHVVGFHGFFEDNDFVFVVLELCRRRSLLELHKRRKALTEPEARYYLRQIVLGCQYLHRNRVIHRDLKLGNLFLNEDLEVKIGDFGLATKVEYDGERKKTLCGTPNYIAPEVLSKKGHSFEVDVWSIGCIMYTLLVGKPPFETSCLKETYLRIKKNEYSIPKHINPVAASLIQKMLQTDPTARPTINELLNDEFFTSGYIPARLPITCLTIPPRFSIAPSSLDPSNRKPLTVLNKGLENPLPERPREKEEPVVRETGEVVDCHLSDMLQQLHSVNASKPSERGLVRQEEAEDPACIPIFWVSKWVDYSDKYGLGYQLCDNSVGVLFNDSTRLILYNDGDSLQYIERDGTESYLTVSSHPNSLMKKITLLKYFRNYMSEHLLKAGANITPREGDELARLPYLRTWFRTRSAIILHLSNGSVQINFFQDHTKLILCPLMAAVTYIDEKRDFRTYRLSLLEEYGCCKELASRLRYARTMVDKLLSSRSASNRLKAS

SMILES	pKd (PLK1)	pKd (androgen receptor)	pKd (BRD4-BD2)	pKd (BRD4-BD1)
CCC1C(=O)N(C)c2cnc(Nc3ccc(C(=O)NCCN(C)C(=O)CO[C@H]4CC[C@H]5[C@@H]6CC[C@H]7CC(=O)CC[C@]7(C)[C@H]6CC[C@]45C)cc3OC)nc2N1C1CCCC1 (stereo partly shown) [Compound I-41]	> 7.30	–	–	–
Cc1sc2c(c1C)C(c1ccc(Cl)cc1)=N[C@@H](CC(=O)NCCOCCOCCOCCOCCOCCOCCOc1ccc(C(=O)NC3C(C)(C)C(Oc4ccc(C#N)c(Cl)c4)C3(C)C)cc1)c1nnc(C)n1-2 (stereo partly shown) [Compound I-34]	–	> 7.30	6.30 to 7.30	6.30 to 7.30
